# Laboratory results from patent US20240084258A1, “METHOD FOR PREPARING BROWN ADIPOCYTE” (KYOTO PREFECTURAL PUBLIC UNIVERSITY CORPORATION, priority 2015, published 2024).
# Assays:
# Type in all cases: cell-based
# [1] = test system: human dermal fibroblasts (HDFs); test: UCP1 mRNA response of induced cells to Isoproterenol or FSK stimulation (Example 3); conditions: cells cultured 14 days with T3, Rosiglitazone and D4476, then 10 μM Isoproterenol or FSK for 5 hr; FIG. 3
# Procedure: 10 μM Isoproterenol or FSK was added to these cells as described in the Figure. As a control, a group free of the addition was also prepared. After 5 hr, the culture medium was removed from each well by suction, the cells were washed with PBS(−) and total RNA was extracted from the cells with ISOGEN II. qRT-PCR was performed in the same manner as in Example 2. The mRNA level of UCP1 gene was quantified as a ratio to […] gene mRNA and calculated with the value of fibroblast cultured in the normal medium as 1.
# [2] = test system: human dermal fibroblasts (HDFs); test: UCP1 gene mRNA, comparison of four inhibitors at 4-16 μM (Example 15); conditions: for induction efficiency into brown adipocytes (order): compound at 4, 8, 12 or 16 μM up to Day 9, UCP1 mRNA on day 14, FIG. 15; for UCP1 gene expression (conversion to brown adipocytes): compound at 4, 8, 12 or 16 μM up to Day 9, then without compound Day 9-14, FIG. 15
# Procedure: (§1) (Day −1). In the control (Ctrl) group, the culture supernatant of the next day (Day 0) was removed by suction and the cells were cultured in a normal medium up to day 14 while substituting the medium with a fresh one once every other day. In groups other than the control (Ctrl) group, the culture supernatant was removed by suction on day 0, an adipocyte induction medium or an adipocyte induction medium added with any of ALK5 inhibitor II, SB431542, LY2157299 and D4476 at a concentration of 4 μM, 8 μM, 12 μM or 16 μM respectively was added at 1 mL/well.
# Thereafter, the cells were cultured in an adipocyte induction medium free of any compound of ALK5 inhibitor II, SB431542, LY215799 and D4476 during Day 9-Day 14.
# [3] = test system: human dermal fibroblasts (HDFs); test: UCP1 protein immunostaining, comparison of four inhibitors (Example 16); conditions: ALK5 inhibitor II 4 μM, LY2157299 8 μM; for UCP1 protein expression by immunostaining (induction into brown adipocytes): SB431542 4 μM, D4476 4 μM up to Day 9, day 14, FIG. 16A, 16B
# Procedure: Thereafter, the cells were cultured in an adipocyte induction medium free of any compound of ALK5 inhibitor II, SB431542, LY215799 and D4476 during Day 9-Day 14. On day 14, the medium was removed by suction from each well, and the cells were washed with PBS(−).
# [4] = test system: human dermal fibroblasts (HDFs); test: UCP1, CIDEA and KCNK3 gene mRNA by real time RT-PCR (Example 17); conditions: ALK5 inhibitor II 4 μM or LY2157299 8 μM up to Day 9, day 14, FIG. 17
# Procedure: as §1, with “and” for “an adipocyte induction medium or”, “II (4 μM) and” for “II, SB431542,”, “(8 μM)” for “and D4476 at a concentration of 4 μM, 8 μM, 12 μM or 16 μM respectively”
# Thereafter, the cells were cultured in an adipocyte induction medium free of any compound of ALK5 inhibitor II and LY215799 during Day 9-Day 14. On day 14, the medium was removed by suction from the wells of all groups, and the cells were washed with PBS(−).
# [5] = test system: human dermal fibroblasts (HDFs); test: UCP1 gene mRNA by real time RT-PCR (Example 2); conditions: induction medium + T3 + Rosiglitazone, D4476 2 μM, FSK 2 μM, PD0325901 1 μM, SB431542 2 μM, day 14, FIG. 2
# Procedure: (§2) This was seeded in a 24-well plate at a concentration of 1×10^4 cells/well (day 0), and culturing was started at 5% CO2/95% humid air, 37° C. The next day, the culture supernatant was removed by suction and, as described in the Figure, a normal medium, an adipocyte induction medium, or an adipocyte induction medium added with each low-molecular compound and the like was added at 500 μL/well. […] The concentrations of the additives are as follows: • T3: 1 nM • Rosiglitazone: 1 μM • D4476: 2 μM • Pifithrin alpha [p53 inhibitor]: 5 μM • Forskolin (FSK): 2 μM • PD0325901: 1 μM • SB431542: 2 μM. The culture medium was substituted by a fresh one every 3-4 days and the cells were cultured up to day 14.
# [6] = test system: human dermal fibroblasts (HDFs); test: PGC-1alpha gene mRNA by real time RT-PCR (Example 5); conditions: induction medium + T3 + Rosiglitazone, FSK 2 μM, PD0325901 1 μM, day 14, FIG. 5
# Procedure: as §2, with “The” for “This was seeded in a 24-well plate at a concentration of 1×10^4 cells/well (day 0), and culturing was started at 5% CO2/95% humid air, 37° C. The”, “each” for “each low-molecular”, “•” for “• D4476: 2 μM •”, “1” for “1 μM • SB431542: 2”
# [7] = test system: human dermal fibroblasts (HDFs); test: AdipoQ gene mRNA by real time RT-PCR (Example 6); conditions: induction medium + T3 + Rosiglitazone, D4476, SB431542, ALK5 Inhibitor II 2 μM, PD0325901 1 μM, day 14, FIG. 6
# Procedure: as §2, with “with each low-molecular-weight compound and” for “with each low-molecular compound and”, “D4476: 2 μM. • Pifithrin” for “D4476: 2 μM • Pifithrin”, “μM • PD0325901: 1” for “μM • Forskolin (FSK): 2 μM • PD0325901: 1”, “• SB431542: 2 μM • ALK5 Inhibitor II: 2 μM.” for “• SB431542: 2 μM.”
# [8] = test system: human dermal fibroblasts (HDFs); test: UCP1 protein immunostaining, fluorescence intensity (Example 8); conditions: for UCP1 protein expression by immunostaining (conversion to brown adipocytes): induction medium + T3 + Rosiglitazone, D4476, SB431541, ALK5 inhibitor II, FSK 2 μM, PD0325901 1 μM, day 14, FIG. 8A-C
# Procedure: (§3) The next day, the culture supernatant was removed by suction and, as described in the Figure, a normal medium, an adipocyte induction medium, or an adipocyte induction medium added with each compound and the like was added at 500 μL/well. […] The concentrations of the additives are as follows: • T3: 1 nM • Rosiglitazone: 1 μM • […]: 2 μM • SB431541: 2 μM • ALK5 inhibitor II: 2 μM • PD0325901: 1 μM • Forskolin (FSK): 2 μM. The culture medium was substituted by a fresh one every 3-4 days and the cells were cultured up to day 14. […] The cells were photographed at a magnification of 200 with a fluorescence microscope and the fluorescence intensity was measured.
# [9] = test system: human dermal fibroblasts (HDFs); test: Oil Red O staining of fibroblasts cultured with compounds (Example 1); conditions: adipocyte induction medium with T3 1 nM and Rosiglitazone 1 μM, D4476 2 μM, SB431542 2 μM, ALK5 Inhibitor II 2 M, Pifithrin alpha 5 μM, day 14, FIG. 1
# Procedure: The next day, the culture supernatant was removed by suction and, as described in the Figure, a normal medium, an adipocyte induction medium, or an adipocyte induction medium added with the compound and the like was added at 500 μL/well.
# The adipocyte induction medium is a 10% FBS-added DMEM+MDI medium (10% FBS-added DMEM supplemented with 0.5 mM isobutylmethylxanthine (IBMX), 0.5 μM dexamethason and 1 μg/mL Insulin).
# The concentrations of the additives are as follows: • T3: 1 nM • Rosiglitazone: 1 μM • D4476: 2 μM • Pifithrin alpha [p53 inhibitor]: 5 μM • SB431542: 2 μM • ALK5 Inhibitor II: […].
# The culture medium was substituted by a fresh one every 3-4 days and the cells were cultured up to day 14.
# After washing 3 times with sterile distilled water, Oil Red O staining solution was added, and the mixture was incubated at room temperature for 15 min. Then, the cells were washed with sterile distilled water and photographed at a magnification of 100 with a phase contrast microscope.
# [10] = test system: human dermal fibroblasts (HDFs); test: CIDEA gene mRNA by real time RT-PCR (Example 4); conditions: induction medium + T3 + Rosiglitazone, compounds 2 μM, day 14, FIG. 4
# Procedure: The next day, the culture supernatant was removed by suction and, as described in the Figure, a normal medium, an adipocyte induction medium, or an adipocyte induction medium added with each compound and the like was added at 500 μL/well. […] The concentrations of the additives are as follows: • T3: 1 nM • Rosiglitazone: 1 μM • D4476: 2 μM • Pifithrin alpha [p53 inhibitor]: 5 μM • SB431542: 2 μM • ALK5 Inhibitor II: 2 μM. The culture medium was substituted by a fresh one every 3 4 days and the cells were cultured up to day 14.
# [11] = test system: human dermal fibroblasts (HDFs); test: BODIPY staining of lipid droplets (Example 7); conditions: induction medium + T3 + Rosiglitazone, compounds 2 μM, day 14, FIG. 7A, 7B
# Procedure: as §3, with “each low-molecular-weight” for “each”, “II:” for “II: 2 μM • PD0325901: 1 μM • Forskolin (FSK):”
SMILES,induction efficiency into brown adipocytes (order) [2],UCP1 gene expression (conversion to brown adipocytes) [2],UCP1 protein expression by immunostaining (induction into brown adipocytes) [3],mRNA expression of UCP1 gene (conversion to brown adipocytes) [5],mRNA expression of AdipoQ gene (conversion to brown adipocytes) [7],UCP1 protein expression by immunostaining (conversion to brown adipocytes) [8],Oil Red O staining [9],other results
"CC(C)NCC(O)c1ccc(O)c(O)c1 (centres unmarked) [Isoproterenol, isoproterenol]",–,–,–,–,–,–,–,UCP1 mRNA expression on stimulation [1]: more strongly express UCP1 mRNA
"Cc1cccc(-c2nn3c(c2-c2ccnc4ccc(C(N)=O)cc24)CCC3)n1 [LY2157299, 4-[5,6-dihydro-2-(6-methyl-2-pyridinyl)-4H-pyrrolo[1,2-b]pyrazol-3-yl]-6-quinolinecarboxamide]",second most strong,converted to brown adipocytes strongly expressing UCP1 gene,induced into brown adipocytes expressing UCP1 protein,–,–,–,–,"strength of induction of UCP1 expression (order) ([3]; immunostaining day 14, FIG. 16): second most strong; CIDEA gene expression [4]: induced into brown adipocytes expressing UCP1 gene, CIDEA gene and KCNK3 gene; KCNK3 gene expression [4]: induced into brown adipocytes expressing UCP1 gene, CIDEA gene and KCNK3 gene; UCP1 gene expression [4]: induced into brown adipocytes expressing UCP1 gene, CIDEA gene and KCNK3 gene"
O=C(NOC[C@H](O)CO)c1ccc(F)c(F)c1Nc1ccc(I)cc1F [PD0325901],–,–,–,induced to brown adipocytes that express mRNA of UCP1 gene,converted to brown adipocytes expressing mRNA of AdipoQ gene,converted to brown adipocytes expressing UCP1 protein,–,"mRNA expression of PGC-1alpha gene (conversion to brown adipocytes) [6]: converted to brown adipocytes expressing mRNA of PGC-1alpha gene; change of expression of UCP-1 protein by addition culture ([8]; PD0325901 1 μM or Forskolin 2 μM, day 14, FIG. 8B): increases"
Cc1ccc(C(=O)Cn2c3c(sc2=N)CCCC3)cc1 [Pifithrin alpha],–,–,–,–,–,–,hardly observed,–
"NC(=O)c1ccc(-c2nc(-c3ccc4c(c3)OCO4)c(-c3ccccn3)[nH]2)cc1 [SB431542, 4-[4-(1,3-Benzodioxol-5-yl)-5-(pyridin-2-yl)-1H-imidazol-2-yl]benzamide]",ALK5 inhibitor II>LY2157299>SB431541>D4476,converted to brown adipocytes strongly expressing UCP1 gene,induced into brown adipocytes expressing UCP1 protein,induced to brown adipocytes that express mRNA of UCP1 gene,converted to brown adipocytes expressing mRNA of AdipoQ gene,converted to brown adipocytes expressing UCP1 protein,Remarkable Oil Red O staining,mRNA expression of CIDEA gene (conversion to brown adipocytes) [10]: converted to brown adipocytes expressing mRNA of CIDEA gene; lipid droplets stained with BODIPY (conversion to brown adipocytes) [11]: converted to brown adipocytes having lipid droplets stained with BODIPY
